Reference: PMC9115767 (European journal of medicinal chemistry, 2021)
pEC50: −log10 of the molar value. Read-outs that look alike come from different tables or passages of the source.

Legend:
[1] = in vitro; details: human, microsomes
[2] = system: HIV-2 ROD; experiment: microbe, parasite or virus in culture; type: cell-based
[3] = system: MT-4 cells
[4] = system: HIV-1 IIIB; type: cell-based
[5] = selectivity index, ratio CC50/EC50, HIV-1 IIIB
[6] = selectivity index, ratio CC50/EC50, HIV-2 ROD

| Structure (SMILES) | SI HIV ROD [2] | SI HIV ROD [2, 6] | also measured |
| --- | --- | --- | --- |
| COc1ccc(N(C)C(=O)[C@H](Cc2ccccc2)NC(=O)CN2CCN(S(=O)(=O)c3ccc(N)cc3)CC2=O)cc1 [Compound 11l, reference compound] | – | – | CLint scaled at 3 h, 100 µM [1]: 356 mL/min/kg |
| COc1ccc(N(C)C(=O)[C@H](Cc2ccccc2)NC(=O)CN2CC(=O)N(CC(=O)N[C@@H](Cc3ccccc3)C(=O)N(C)c3ccc(OC)cc3)CC2=O)cc1 [Q-a1, (2S,2′S)-2,2'-((2,2'-(2,5-dioxopiperazine-1,4-diyl)bis(acetyl))bis(azanediyl)) bis(N-(4-methoxyphenyl)-N-methyl-3-phenylpropanamide)] | <1.00 | – | – |
| COc1ccc(N(C)C(=O)[C@H](Cc2cc(F)cc(F)c2)NC(=O)CN2CC(=O)N(CC(=O)N[C@@H](Cc3cc(F)cc(F)c3)C(=O)N(C)c3ccc(OC)cc3)CC2=O)cc1 [Q-a2, (2S,2S)-22′-((2,2'-(2,5'-dioxopiperazine-1,4-diyl)bis(acetyl))bis(azanediyl)) bis(3-(3,5-di-N-difluorophenyl)-N-(4-methoxyphenyl)-N-methylpropanamide)] | – | – | CLint scaled at 3 h, 100 µM [1]: 760 mL/min/kg |
| CN(C(=O)[C@H](Cc1ccccc1)NC(=O)CN1CCNCC1=O)c1ccccc1 [Q-b1, (S)–N-methyl-2-(2-(2-oxopiperazin-1-yl)acetamido)-N,3-diphenyl propanamide] | >1.19 | – | CC50 [3]: > 317 µM; SI HIV IIIB [4]: >1.28 |
| COc1ccc(N(C)C(=O)[C@H](Cc2ccccc2)NC(=O)CN2CCNCC2=O)cc1 [Q-b2, (S)–N-(4-methoxyphenyl)-N-methyl-2-(2-(2-oxopiperazin-1-yl)acetamido)-3-phenylpropanamide] | – | >8.94 | SI HIV IIIB [4, 5]: >3.30 |
| COc1ccc(N(C)C(=O)[C@H](Cc2ccccc2)NC(=O)CN2CCN(CC(=O)N[C@@H](Cc3ccccc3)C(=O)N(C)c3ccc(OC)cc3)C(=O)C2)cc1 [Q-c1, (2S,2′S)-2,2'-((2,2'-(2-oxopiperazine-1,4-diyl)bis(acetyl))bis(azanediyl)) bis(N-(4-methoxyphenyl)-N-methyl-3-phenylpropanamide)] | <1.00 | – | SI HIV IIIB [4]: ≤4.29 |
| COc1ccc(N(C)C(=O)[C@H](Cc2cc(F)cc(F)c2)NC(=O)CN2CCN(CC(=O)N[C@@H](Cc3ccccc3)C(=O)N(C)c3ccc(OC)cc3)C(=O)C2)cc1 [Q-c2, (S)-3-(3,5-difluorophenyl)-N-(4-methoxyphenyl)-2-(2-(4-(2-(((S)-1-((4-methoxyphenyl)(methyl)amino)-1-oxo-3-phenylpropan-2-yl)amino)-2-oxoethyl)-3-oxopiperazin-1-yl)acetamido)-N-methylpropanamide] | – | <1.00 | – |
| COc1ccc(N(C)C(=O)[C@H](Cc2ccccc2)NC(=O)CN2CCN(CC(=O)N[C@@H](Cc3ccccc3)C(=O)N(C)c3ccccc3)CC2=O)cc1 [Q-c3, (S)–N-(4-methoxyphenyl)-N-methyl-2-(2-(4-(2-(((S)-1-(methyl(phenyl)amino)-1-oxo-3-phenylpropan-2-yl)amino)-2-oxoethyl)-2-oxopiperazin-1-yl)acetamido)-3-phenylpropanamid] | – | <1.00 | SI HIV IIIB [4, 5]: <1.00 |
| COc1ccc(N(C)C(=O)[C@H](Cc2ccccc2)NC(=O)CN2CCN(CC(=O)N[C@@H](Cc3cc(F)cc(F)c3)C(=O)N(C)c3ccc(OC)cc3)C(=O)C2)cc1 [Q-c5, (S)-3-(3,5-difluorophenyl)-N-(4-methoxyphenyl)-2-(2-(4-(2-(((S)-1-((4-methoxyphenyl)(methyl)amino)-1-oxo-3-phenylpropan-2-yl)amino)-2-oxoethyl)-2-oxopiperazin-1-yl)acetamido)-N-methyl-propanamide] | – | <1.00 | – |
| COc1ccc(N(C)C(=O)[C@H](Cc2cc(F)cc(F)c2)NC(=O)CN2CCN(CC(=O)N[C@@H](Cc3ccccc3)C(=O)N(C)c3ccccc3)CC2=O)cc1 [Q-c6, (S)-3-(3,5-difluorophenyl)-N-(4-methoxyphenyl)-N-methyl-2-(2-(4-(2-(((S)-1-(methyl(phenyl)amino)-1-oxo-3-phenylpropan-2-yl)amino)-2-oxoethyl)-2-oxopiperazin-1-yl)acetamido)propenamide] | <1.00 | – | – |
| CN(C(=O)[C@H](Cc1ccccc1)NC(=O)CN1CCN(CC(=O)N[C@@H](Cc2ccccc2)C(=O)N(C)c2ccccc2)C(=O)C1)c1ccccc1 [Q-c7, (2S,2′S)-2,2'-((2,2'-(2-oxopiperazine-1,4-diyl)bis(acetyl))bis(azanediyl)) bis(N-methyl-N,3-diphenylpropanamide)] | <1.00 | – | SI HIV IIIB [4]: <1.00; pEC50 ([2]; Human immunodeficiency virus 2, MT4, read-out: EC50 HIV ROD): < 4.49 |
| COc1ccc(N(C)C(=O)[C@H](Cc2cc(F)cc(F)c2)NC(=O)CN2CCN(CC(=O)N[C@@H](Cc3ccccc3)C(=O)N(C)c3ccccc3)C(=O)C2)cc1 [Q-c8, (S)-3-(3,5-difluorophenyl)-N-(4-methoxyphenyl)-N-methyl-2-(2-(4-(2-(((S)-1-(methyl(phenyl)amino)-1-oxo-3-phenylpropan-2-yl)amino)-2-oxoethyl)-3-oxopiperazin-1-yl)acetamido)propenamide] | <1.00 | – | – |
| COc1ccc(N(C)C(=O)[C@H](Cc2ccccc2)NC(=O)CN2CCN(CC(=O)N[C@@H](Cc3ccccc3)C(=O)N(C)c3ccccc3)C(=O)C2)cc1 [Q-c9, (S)–N-(4-methoxyphenyl)-N-methyl-2-(2-(4-(2-(((S)-1-(methyl(phenyl)amino)-1-oxo-3-phenylpropan-2-yl)amino)-2-oxoethyl)-3-oxopiperazin-1-yl)acetamido)-3-phenylpropanamide] | – | <1.00 | SI HIV IIIB [4, 5]: ≤6.45 |
